Experimental findings from PubChem BioAssay (NCI) are described below.

Some test systems named below: T-47D breast; SNB-75 CNS; SR leukemia; COLO 205 colon; A498 renal; CAKI-1 renal; HT29 colon; HS 578T breast; SN12C renal; OVCAR-4 ovarian.
Holding throughout (assay): NCI anticancer screen, dose series, 48 h

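Grown in 96-well plates, cells were treated for 48 hours with each compound at five concentrations. Insufficient inhibition: endpoint recorded as highest concentration tested. GI50 = concentration required for 50% inhibition of growth. TGI marks complete inhibition of growth.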

As to `C[N+]1(CCN[N+]2(C)CCCCC2)CCc2ccccc2C1` (configuration not stated), the TGI with T-47D breast, in the test on SNB-75 CNS, in the test with SR leukemia, with COLO 205 colon, with A498 renal and with CAKI-1 renal was above 100 µM in each case. The TGI with HT29 colon, with HS 578T breast, with SN12C renal and in the test with OVCAR-4 ovarian was above 100 µM throughout.
For the compound `COc1ccc(/C=C/C2=NN(c3cccc(S(=O)(=O)O)c3)C3(C2)SCC(=O)N3c2nc3ccccc3s2)cc1` (configuration not stated), the TGI was 87.1 µM in the test with T-47D breast; above 100 µM in the test with SNB-75 CNS; above 100 µM in the test with SR leukemia; above 100 µM in the test on COLO 205 colon; above 100 µM in the test on A498 renal; above 100 µM in the test with CAKI-1 renal. For the same compound, the TGI with HT29 colon, with HS 578T breast, in the test with SN12C renal and in the test with OVCAR-4 ovarian was above 100 µM each time.
For the compound `COc1ccccc1C[C@@H]1OC2(C=CC(=O)C=C2)O[C@H]1Cc1ccccc1OC`, the TGI with T-47D breast was above 50 µM; in the test on SNB-75 CNS, 17.6 µM; with SR leukemia, 13.1 µM; in the test with COLO 205 colon, 14.9 µM; in the test with A498 renal, 49.9 µM; in the test on CAKI-1 renal, 29.7 µM. The TGI in the test with HT29 colon came to 16.7 µM; with HS 578T breast it was 29.3 µM; in the test on SN12C renal, 23.4 µM; with OVCAR-4 ovarian it was 19.9 µM.
With `Oc1[nH]c2ccccc2c1/C=c1/cc2c(c(-c3ccc(F)cc3)n1)=Nc1ccccc1-2`, the GI50 in the test on T-47D breast is 0.501 µM; with SNB-75 CNS, 0.227 µM; in the test with SR leukemia, 0.306 µM; with COLO 205 colon, 0.316 µM; with A498 renal it was 0.309 µM; in the test on CAKI-1 renal, 1.29 µM. In addition, the GI50 in the test with HT29 colon was 0.384 µM; in the test on HS 578T breast it was 0.528 µM; in the test with SN12C renal it was 1.38 µM. In addition, the TGI in the test on T-47D breast is 2.13 µM; in the test with SNB-75 CNS, 1.27 µM; in the test with SR leukemia, 2.49 µM; in the test with COLO 205 colon, 1.27 µM; in the test with A498 renal, 1.85 µM; in the test with CAKI-1 renal, 5.05 µM. In addition, the values for the TGI in the test on HT29 colon, in the test on HS 578T breast and in the test on SN12C renal were 1.43 µM, 3.28 µM and 3.88 µM, respectively.
With `COc1ccc(/C=N/n2cnc3[nH]c(C)c(Cc4ccccc4)c3c2=N)cc1`, the TGI in the test with T-47D breast, in the test on SNB-75 CNS, in the test on SR leukemia, in the test with COLO 205 colon, with A498 renal and with CAKI-1 renal was above 100 µM in each case. Besides, the TGI in the test with HT29 colon, in the test on HS 578T breast, with SN12C renal and in the test with OVCAR-4 ovarian was above 100 µM throughout.
With `C[C@H]1S[C@H](c2c(Cl)cccc2Cl)N2Cc3ccccc3N=C12`, the TGI in the test on T-47D breast is 36.4 µM; in the test with SNB-75 CNS, 32.4 µM; in the test on SR leukemia it was above 100 µM; in the test on COLO 205 colon, 25.2 µM; in the test on A498 renal, 66 µM; with CAKI-1 renal, above 100 µM. The TGI in the test on HS 578T breast is 42.3 µM; in the test with SN12C renal, above 100 µM; with OVCAR-4 ovarian, above 100 µM.
Take `S=C(Nc1ccc2cn[nH]c2c1)Nc1ccc2cn[nH]c2c1`: the TGI in the test with T-47D breast, with SNB-75 CNS, with SR leukemia, in the test with COLO 205 colon, in the test with A498 renal and in the test on CAKI-1 renal was above 100 µM in each case. Further, the TGI with HT29 colon, with HS 578T breast, in the test on SN12C renal and in the test on OVCAR-4 ovarian was above 100 µM in each case.
Consider `O=C(Nc1ccccc1)c1cc(S(=O)(=O)N2CCNNC2=O)c(S)cc1Cl`, for which the TGI is 83.9 µM in the test on T-47D breast; above 100 µM with SNB-75 CNS; above 100 µM in the test on SR leukemia; above 100 µM in the test with COLO 205 colon; above 100 µM in the test on A498 renal; above 100 µM with CAKI-1 renal. In addition, the TGI with HS 578T breast, in the test on SN12C renal and with OVCAR-4 ovarian was above 100 µM each time.
With `CC1C(c2ccc(Cl)cc2)c2cc3c(cc2OC1N1CCOCC1)OCO3` (configuration not stated), the TGI in the test on T-47D breast was above 100 µM; in the test on SNB-75 CNS, above 100 µM; with SR leukemia it was 17.9 µM; in the test with COLO 205 colon it was above 100 µM; in the test with CAKI-1 renal, 71.5 µM; in the test with HT29 colon it was above 100 µM. Besides, the TGI was 70.4 µM in the test with HS 578T breast and above 100 µM in the test on SN12C renal.
As to `COC(=O)c1ccc(Nc2nc3nc[nH]c3c(=O)[nH]2)cc1`, the TGI in the test on T-47D breast, in the test with SNB-75 CNS, with SR leukemia, in the test on COLO 205 colon, in the test on A498 renal and with CAKI-1 renal was above 100 µM each time. Further, the TGI in the test on HT29 colon, in the test on HS 578T breast, in the test on SN12C renal and with OVCAR-4 ovarian was above 100 µM in each case.
`CCCC(CCN)(CCN)[N+](=O)[O-]`: the TGI with T-47D breast, with SNB-75 CNS, with SR leukemia, in the test with COLO 205 colon, with A498 renal and in the test on CAKI-1 renal was above 100 µM each time. Further, the TGI with HT29 colon, in the test on HS 578T breast, in the test with SN12C renal and in the test with OVCAR-4 ovarian was above 100 µM each time.
For `COc1cc(N(Cc2ccc3oc(=O)c(-c4ccccc4)nc3c2)Cc2ccc3oc(=O)c(-c4ccccc4)nc3c2)cc(OC)c1OC`, the TGI in the test with T-47D breast, with SNB-75 CNS, with SR leukemia, in the test on COLO 205 colon, in the test with CAKI-1 renal and in the test on HT29 colon was above 10 µM in each case. Also, the TGI in the test with HS 578T breast, with SN12C renal and with OVCAR-4 ovarian was above 10 µM in each case.
Regarding `C[C@@H]1S[C@H](c2c(Cl)cccc2Cl)N2Cc3ccccc3N=C12`, the TGI with T-47D breast, in the test on SNB-75 CNS, in the test with SR leukemia, in the test on COLO 205 colon, in the test on A498 renal and in the test with CAKI-1 renal was above 100 µM in each case. Further, the TGI in the test on HS 578T breast, with SN12C renal and with OVCAR-4 ovarian was above 100 µM each time.
